Results as given in patent US20250353819A1, “ARYL HYDANTOIN COMPOUNDS AND METHODS OF USE” (priority 2022, published 2025).
Values joined by “and” are separate entries in the source; they are usually repeats but may differ in a detail not shown here. Equal entries are not always repeated. Where two headings read alike, the source gives them in different places.

Experiments:
[1] = Plasma protein binding (rapid equilibrium dialysis), human plasma; format: in vitro ADME; settings: human, plasma, read-out: % bound (converted)
[2] = Stability in dog cryopreserved hepatocytes; format: in vitro ADME; settings: Dog cryopreserved hepatocytes
[3] = Pharmacokinetics in male Sprague Dawley rats; format: in vivo, rat; settings: for Cmax: read-out: Plasma Cmax; for half-life: plasma
Procedure: IV and oral formulations were prepared using the same method. On the day of dosing the solid compound was dissolved in DMSO prior to addition of a saline solution (0.9% w/v). The samples were then mixed using vortexing producing colourless solutions. The IV formulation was filtered through a 0.22 μm syringe filter prior to dosing and the oral formulation was dosed without filtration.
Samples of arterial blood were collected up to 168 h post-dose. Urine samples were not collected as animals were housed in bedded cages. Arterial blood was collected directly into borosilicate vials (at 4° C.) containing heparin as anticoagulant. Once collected, blood samples were centrifuged, supernatant plasma was removed and stored frozen (−80° C.) until analysis by LC-MS. A summary of the bioanalytical method and assay validation details is included in Tables 14 and 15.
Plasma concentration versus time data were analysed using non-compartmental methods (PKSolver Version 2.0). Standard calculations for each pharmacokinetic parameter are listed below.

SMILES: CC1(C)NC(=O)N(c2ccc(F)c(C(C)(F)F)c2)C1=O [Compound IC, 3-(3-(1,1-difluoroethyl)-4-fluorophenyl)-5,5-dimethylimidazolidine-2,4-dione]
- fraction unbound [1]: 0.34
- CLint [2]: <1.9 μL/min/10^6
- Plasma Concentration ([3]; IV 1 mg/kg, 0.17 h, individual rats): 1292 ng/mL and 1300 ng/mL and 908 ng/mL
- Plasma Concentration ([3]; IV 1 mg/kg, 0.17 h, mean): 1167 ng/mL
- Plasma Concentration ([3]; IV 1 mg/kg, 1.17 h, individual rats): 728 ng/mL and 549 ng/mL and 529 ng/mL
- Plasma Concentration ([3]; IV 1 mg/kg, 1.17 h, mean): 602 ng/mL
- Plasma Concentration ([3]; IV 1 mg/kg, 2.17 h, individual rats): 701 ng/mL and 669 ng/mL and 469 ng/mL
- Plasma Concentration ([3]; IV 1 mg/kg, 2.17 h, mean): 613 ng/mL
- Plasma Concentration ([3]; IV 1 mg/kg, 4.17 h, individual rats): 640 ng/mL and 662 ng/mL and 420 ng/mL
- Plasma Concentration ([3]; IV 1 mg/kg, 4.17 h, mean): 574 ng/mL
- Plasma Concentration ([3]; IV 1 mg/kg, 7.17 h, individual rats): 569 ng/mL and 641 ng/mL and 493 ng/mL
- Plasma Concentration ([3]; IV 1 mg/kg, 7.17 h, mean): 568 ng/mL
- Plasma Concentration ([3]; IV 1 mg/kg, 12.17 h, individual rats): 545 ng/mL and 473 ng/mL and 480 ng/mL
- Plasma Concentration ([3]; IV 1 mg/kg, 12.17 h, mean): 499 ng/mL
- Plasma Concentration ([3]; IV 1 mg/kg, 24.17 h, individual rats): 340 ng/mL and 403 ng/mL and 268 ng/mL
- Plasma Concentration ([3]; IV 1 mg/kg, 24.17 h, mean): 337 ng/mL
- Plasma Concentration ([3]; IV 1 mg/kg, 36.17 h, individual rats): 215 ng/mL and 266 ng/mL and 216 ng/mL
- Plasma Concentration ([3]; IV 1 mg/kg, 36.17 h, mean): 232 ng/mL
- Plasma Concentration ([3]; IV 1 mg/kg, 48.17 h, individual rats): 125 ng/mL and 170 ng/mL and 97 ng/mL
- Plasma Concentration ([3]; IV 1 mg/kg, 48.17 h, mean): 130 ng/mL
- Plasma Concentration ([3]; IV 1 mg/kg, 72.17 h, individual rats): 46.8 ng/mL and 62.2 ng/mL and 33.5 ng/mL
- Plasma Concentration ([3]; IV 1 mg/kg, 72.17 h, mean): 47.5 ng/mL
- Plasma Concentration ([3]; IV 1 mg/kg, 96.17 h, individual rats): 11.5 ng/mL and 28.1 ng/mL and 13.6 ng/mL
- Plasma Concentration ([3]; IV 1 mg/kg, 96.17 h, mean): 17.7 ng/mL
- Plasma Concentration ([3]; IV 1 mg/kg, 120.17 h, individual rats): 3.1 ng/mL and 7.0 ng/mL and 2.6 ng/mL
- Plasma Concentration ([3]; IV 1 mg/kg, 120.17 h, mean): 4.2 ng/mL
- Plasma Concentration ([3]; IV 1 mg/kg, 144.17 h, individual rats): 3.0 ng/mL
- Plasma Concentration ([3]; IV 1 mg/kg, 144.17 h, mean): 3.0 ng/mL
- clearance ([3]; male, Sprague Dawley, rat, in vivo, iv, 1 mg/kg, rats, IV 1 mg/kg, individual rats, read-out: Blood CL): 0.664 mL/min/kg
- Vd ([3]; male, Sprague Dawley, rat, in vivo, iv, 1 mg/kg, rats, IV 1 mg/kg, individual rats, read-out: Blood Vss): 0.948 L/kg
- AUC ([3]; male, Sprague Dawley, rat, in vivo, iv, 1 mg/kg, rats, IV 1 mg/kg, individual rats, read-out: Plasma AUCIV): 20900 ng·h/mL
- clearance ([3]; male, Sprague Dawley, rat, in vivo, iv, 1 mg/kg, rats, IV 1 mg/kg, individual rats, read-out: Plasma CL): 0.797 mL/min/kg
- Vd ([3]; male, Sprague Dawley, rat, in vivo, iv, 1 mg/kg, rats, IV 1 mg/kg, individual rats, read-out: Plasma Vss): 1.14 L/kg
- AUC ([3]; male, Sprague Dawley, rat, in vivo, iv, 1 mg/kg, rats, IV 1 mg/kg, mean (n = 3), read-out: Plasma AUCIV): 20600 ng·h/mL
- clearance ([3]; male, Sprague Dawley, rat, in vivo, iv, 1 mg/kg, rats, IV 1 mg/kg, mean (n = 3), read-out: Plasma CL): 0.825 mL/min/kg
- Vd ([3]; male, Sprague Dawley, rat, in vivo, iv, 1 mg/kg, rats, IV 1 mg/kg, mean (n = 3), read-out: Plasma Vss): 1.25 L/kg
- clearance ([3]; male, Sprague Dawley, rat, in vivo, iv, 1 mg/kg, rats, IV 1 mg/kg, mean, read-out: Blood CL): 0.687 mL/min/kg
- Vd ([3]; male, Sprague Dawley, rat, in vivo, iv, 1 mg/kg, rats, IV 1 mg/kg, mean, read-out: Blood Vss): 1.04 L/kg
- AUC ([3]; male, Sprague Dawley, rat, in vivo, po, 1 mg/kg, rats, PO 1 mg/kg, individual rats, read-out: Plasma AUCoral): 23300 ng·h/mL
- Cmax ([3]; male, Sprague Dawley, rat, in vivo, po, 1 mg/kg, rats, PO 1 mg/kg, individual rats): 614 ng/mL
- AUC ([3]; male, Sprague Dawley, rat, in vivo, po, 1 mg/kg, rats, PO 1 mg/kg, mean (n = 3), read-out: Plasma AUCoral): 20400 ng·h/mL
- Cmax ([3]; male, Sprague Dawley, rat, in vivo, po, 1 mg/kg, rats, PO 1 mg/kg, mean (n = 3)): 572 ng/mL
- Tmax ([3]; male, Sprague Dawley, rat, in vivo, po, 1 mg/kg, rats, PO 1 mg/kg, mean (n = 3), read-out: Tmax): 6.7 h
- half-life ([3]; male, Sprague Dawley, rat, iv, 1 mg/kg, rats, IV 1 mg/kg, individual rats, read-out: Apparent t1/2 (converted)): 13 h
- half-life ([3]; male, Sprague Dawley, rat, iv, 1 mg/kg, rats, IV 1 mg/kg, mean (n = 3), read-out: Apparent t1/2 (converted)): 15 h
- half-life ([3]; male, Sprague Dawley, rat, other: IV and oral, 1 mg/kg, rats, following IV and oral administration 1 mg/kg, read-out: apparent half-life): 13 to 19 h
- half-life ([3]; male, Sprague Dawley, rat, po, 1 mg/kg, rats, PO 1 mg/kg, individual rats, read-out: Apparent t1/2 (converted)): 16 h
- half-life ([3]; male, Sprague Dawley, rat, po, 1 mg/kg, rats, PO 1 mg/kg, mean (n = 3), read-out: Apparent t1/2 (converted)): 16 h
- Plasma Concentration ([3]; oral 1 mg/kg, 1.00 h, individual rats): 614 ng/mL and 430 ng/mL and 184 ng/mL
- Plasma Concentration ([3]; oral 1 mg/kg, 1.00 h, mean): 409 ng/mL
